These results are taken from paper PMC5889910, “β-Carboline Silver Compound Binding Studies with Human Serum Albumin: A Comprehensive Multispectroscopic Analysis and Molecular Modeling Study” (Bioinorganic Chemistry and Applications, 2018).

In assay [1] the target is T1, human serum albumin (HSA) (Homo sapiens, UniProt P02768).
T1 construct: I (residues 1–195), II (196–383), and III (384–585); purchased Sigma
The assay can be described thus: Fluorescence quenching titration of HSA (Stern–Volmer analysis). The class given is binding. On the procedure: (§1) The samples of HSA were prepared in 20 mM phosphate buffer (pH 7.4), whereas silver complexes (1 mM) stock solution were prepared in DMSO and further diluted in 20 mM phosphate buffer to reach the desired concentration. In all the samples, the final concentration of DMSO was not more than 1%. The concentration of HSA was determined using the Beer–Lambert law with the molar extinction coefficient of 36500 M^−1·cm^−1 at 280 nm. To study structural changes in HSA by the addition of [Ag(I)(Hnor)2](anion) compounds, the UV absorption spectra were measured, by variation of the concentration of the [Ag(I)(Hnor)2](anion) compounds, while keeping the concentration of HSA constant. UV absorption spectra, from 240 nm to 320 nm, were recorded on a Perkin–Elmer Lambda 45 spectrophotometer at 25°C. Quartz cuvettes of 1 cm path length were used for the measurements. Fluorescence measurements were performed on a Hitachi spectrofluorometer (Model F 7000) equipped with a PC. The fluorescence spectra were collected at 25°C with a path length cell of 1 cm. The slit width used was 5 nm with a protein concentration of 5 µM. The used excitation wavelength for the protein was 295 nm.
(§2) All the spectra were recorded after equilibration of the reaction mixture for 5 min.
The interaction between metal compounds and proteins has been widely investigated by using fluorescence spectroscopies. The luminescence response of HSA, upon addition of different concentrations of Ag(I) compounds, was studied in 20 mM phosphate buffer by using an emission titration experiment. Preliminary luminescence studies of the four starting Ag compounds 1–4 have been reported earlier by some of us. The excitation at 290 nm for all four compound results in a strong luminescence band at around 370 nm. The fluorescence studies of the ligand “Hnor” as well as the free silver salt, “AgNO3,” were also studied under the same conditions to compare the effect of separate entities with a combination of the two. Upon excitation at 295 nm, fluorescence intensity around 340 nm is known to reflect the changes of the tryptophan residue microenvironment. […] In Figure S3, similar data are presented for compounds 2–4, with only marginal differences upon anion variation.
The interaction of the Ag compounds with HSA was quantified; the Stern–Volmer equation has been employed:(1) F0/F=1+KSVQ=1+Kqτ0Q, where F 0 and F are the steady-state fluorescence intensities in the absence and presence of quencher at 340 nm, respectively. K sv is the Stern–Volmer quenching constant, K q stands for bimolecular quenching constant, τ 0 is the lifetime of the fluorophore in the absence of quencher, and [Q] is the concentration of quencher (i.e., the Ag compound). By calculating the quenching rate constants, K q, one can distinguish between the static quenching and the dynamic quenching, and this was evaluated by using the following equation:(2) Kq=KSV/τ0.
The value of tau(zero), τ 0, for biopolymers is known to be 10^−8 s. The Stern–Volmer quenching constant (K sv) for the fluorometric titration of the Ag(I) compounds into HSA solution was calculated from the linear relationship between F 0/F and [Ag(I)(Hnor)2]ClO4 (Figure 5) and enlisted in Table 1. In Figure S4, similar data are presented for compounds 2–4, confirming the above observations.
The equilibrium between free and bound molecules, when small molecules bind independently to a set of similar sites on a macromolecule, was ascertained by a modified Stern–Volmer equation [42]:(3) logF0−F/F=logK+n logQ, where K and n are the binding constant and the number of binding sites, respectively. A plot of log(F 0 − F/F) versus log[Q] was used to determine the value of K and n (inset in Figure 5). Several forces, like electrostatic, hydrogen bonds, weak van der Waals, hydrophobic, and steric contacts, can be thought of being responsible for the interaction between the albumin and Ag compounds. […]

Assay [2] has as its system two different cancer cell lines. More on the design: method as in PMID 25042730. As to conditions: previous study; cited from earlier work.
Assay [3] addresses T1, human serum albumin (HSA). The assay can be described thus: Fluorescence quenching of HSA with addition of extra anions (KClO4, KNO3). Format: binding. The settings on record: for K SV / K, binding constant / n, number of binding sites: HSA 5 µM. On the procedure: as §1
Given the fact that the highest anticancer activity and also the most substantial HSA interaction takes place in case of the perchlorate and nitrate salts, it was decided to add extra perchlorate (and also nitrate) for all cases and to study the effect on the binding affinity. So, we carried out two sets of experiments and studied the binding propensity of Ag(I) compounds with HSA. In one experiment, the extra ClO4 ^− anion was added in a 1 : 4 ratio, compared to the Ag compound. In a second experiment, we used additional nitrate together with the Ag(I) compounds. Details are given in Figures 6 and 7, and the quite similar details for the other 3 compounds are presented in Figures S5 and S6 in Supplementary Materials.
To determine the role of only the anions (i.e., without Ag and Hnor), we also used KClO4 and KNO3 and studied their HSA binding by adding variable amounts of anions to the concentration maximum used in the experiments. […] When the extra anions + compounds were titrated, the results obtained did show an exponential increase in binding affinity of the Ag(I) compounds.
The binding strength was evaluated by calculating the Stern–Volmer constant (K sv), a number of the binding sites (n) and Gibbs free energy (ΔG); (Table 2). […] However, no correlation with the size of these four anions is seen.

Assay [4] addresses T1, human serum albumin (HSA). The assay can be described thus: Far-UV circular dichroism of HSA, α-helix content. More on the design: unit of the concentration uncertain. The class given is binding. As to conditions: HSA 20 µM, free HSA 67.03. How it is done: CD measurements were carried out on a Jasco spectropolarimeter (Model J-815) equipped with a microcomputer. The instrument was calibrated with D-10-camphorsulfonic acid. All the CD measurements were performed at 25°C with a thermostatically controlled cell holder, attached to a Neslab RTE-110 water bath with an accuracy of ±0.1°C. Spectra were collected with a scan speed of […] and a response time of 1 s. Each spectrum was taken as the average of three scans. The far-UV CD spectra were measured at a protein concentration of 20 µM at a path length of 1 cm.
as §2
The CD signal, expressed in millidegree, obtained over the wavelength range of 190–250 nm, was converted to a mean residue ellipticity (MRE, θ), using the following conversion:(5) MRE=θobs mdeg/10×n×Cp×l, where θ obs is the CD in millidegree, the number of amino acid residues (585) is given by n, “l” is the path length (cm), and C p is the molarity. The unit of MRE is deg·cm^2·dmol^−1.
A general note: Circular dichroism is widely used to follow secondary structure.

The target of assay [5] is T1, human serum albumin (HSA). In words: UV absorption spectra of HSA with Ag(I) compounds. Format: binding. The settings on record: HSA 5 µM, with hyperchromism. How it is done:
as §1, §2

Setting [6] is: modified Stern–Volmer equation, HSA 5 µM, pH 7.4, 25°C.
Setting [7] is: Set A: +extra ClO4− (KClO4, 1:4 ratio).
The mark [8] stands for this setting: Set B: +extra NO3− (KNO3, 1:4 ratio).

T1 sequence (P02768 25-609): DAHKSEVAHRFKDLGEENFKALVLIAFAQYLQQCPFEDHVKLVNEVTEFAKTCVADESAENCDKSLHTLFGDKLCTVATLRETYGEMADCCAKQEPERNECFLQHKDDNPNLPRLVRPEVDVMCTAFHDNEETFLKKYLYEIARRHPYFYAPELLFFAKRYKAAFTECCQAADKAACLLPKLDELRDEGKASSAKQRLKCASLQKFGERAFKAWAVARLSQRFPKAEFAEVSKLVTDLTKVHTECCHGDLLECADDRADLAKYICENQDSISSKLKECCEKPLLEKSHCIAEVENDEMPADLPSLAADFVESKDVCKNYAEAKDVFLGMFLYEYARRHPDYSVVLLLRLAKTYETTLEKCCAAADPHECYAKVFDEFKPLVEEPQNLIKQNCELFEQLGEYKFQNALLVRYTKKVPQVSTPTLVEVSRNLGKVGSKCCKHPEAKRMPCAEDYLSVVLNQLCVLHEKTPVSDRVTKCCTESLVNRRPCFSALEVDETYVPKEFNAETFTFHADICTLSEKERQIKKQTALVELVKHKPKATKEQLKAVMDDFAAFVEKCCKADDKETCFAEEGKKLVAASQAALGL

Consider `[Ag+].[O-][Cl+3]([O-])([O-])[O-].c1ccc2c(c1)[nH]c1cnccc12.c1ccc2c(c1)[nH]c1cnccc12` [Compound 1, [Ag(Hnor)2](ClO4)], for which, in assay [1] (HSA 5 µM, 20 mM phosphate buffer pH 7.4, 25°C, excitation 295 nm), the “K SV, Stern–Volmer quenching constant” value is 5.37 10^5 M^−1. Also, the “redshift at the maximal emission wavelength of Tyr and Trp residues of HSA” value in assay [1] (HSA 5 µM, increasing compound concentration) turned out to be 7 nm. In addition, the “K q, bimolecular quenching rate constant” value in assay [1] (Kq = KSV/τ0, τ0 = 10^−8 s, HSA 5 µM, 25°C) is given as 53.7 10^12 M^−1·s^−1. Moreover, the entries for the “K, binding constant” value in assay [1] (setting [6]), in assay [3] (setting [7]) and in assay [3] (setting [8]) were 3.74 10^6 M^−1, 17.2 10^10 M^−1 and 3.64 10^10 M^−1, respectively. The results for the “n, number of binding sites” value in assay [1] (setting [6]), in assay [3] (setting [7]) and in assay [3] (setting [8]) were 1.1, 1.77 and 1.64, respectively. Moreover, in assay [1] (ΔG = −2.303 RT logK), the “∆G, standard free energy change of binding” value is -8.963 kcal/mol. Moreover, the anticancer activity result in assay [2] is recorded as “comparable to cisplatin”. Further, the “∆G” value in assay [3] (setting [7]) is -15.33 kcal/mol; in assay [3] (setting [8]) it was -14.4 kcal/mol. Further, the “K SV” value in assay [3] (setting [7]) is reported as 2.21 10^7 M^−1; in assay [3] (setting [8]) it was 2.06 10^7 M^−1. Moreover, the “% α-helix of HSA” value in assay [4] (compound concentration 20 (unit uncertain)) amounted to 64.07%; in assay [4] (compound concentration 40 (unit uncertain)), 62.23%; in assay [4] (compound concentration 60 (unit uncertain)), 58.59%; in assay [4] (compound concentration 80 (unit uncertain)) it was 50.18%; in assay [4] (compound concentration 100 (unit uncertain)), 35.63%. Moreover, the “redshift (bathochromic effect) of HSA UV absorbance” value in assay [5] came out at 7 nm.
